Biological target: Recombinant human Mat2a (Homo sapiens, UniProt P31153)
Test: Determination of Mat2A activity (384 well absorbance-based assay, Biomol Green)
Type: biochemical
Conditions: 12.5 nM Mat2A, 100 μM ATP and Methionine, 2% DMSO, 120 minutes at RT, absorbance at 635 nm
Summary of the method: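 Recombinant human Mat2A (12.5 nM) was preincubated with compound for 15 min at RT in HEPES pH 7.5 buffer with 2% DMSO. The reaction was started with 100 μM each of ATP and methionine and ran 120 min at RT. Phosphate was detected with Biomol Green by absorbance at 635 nm.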

Recombinant human Mat2a, sequence (P31153 whole entry): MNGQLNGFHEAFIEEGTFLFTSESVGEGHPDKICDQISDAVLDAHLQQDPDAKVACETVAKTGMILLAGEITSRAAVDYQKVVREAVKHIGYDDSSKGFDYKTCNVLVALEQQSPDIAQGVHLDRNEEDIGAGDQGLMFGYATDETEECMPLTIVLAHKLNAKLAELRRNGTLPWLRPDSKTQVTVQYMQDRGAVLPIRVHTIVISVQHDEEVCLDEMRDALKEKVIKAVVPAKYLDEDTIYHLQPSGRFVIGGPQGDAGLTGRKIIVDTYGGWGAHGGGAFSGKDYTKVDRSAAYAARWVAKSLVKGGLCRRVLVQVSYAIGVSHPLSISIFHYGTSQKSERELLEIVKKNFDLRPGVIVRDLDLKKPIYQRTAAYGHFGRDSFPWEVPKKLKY

Structure (SMILES) | IC50
Cc1ncccc1-n1c(=O)nc(N)c2c(Cl)cc(C(F)(F)F)cc21 [Example 87, 4-amino-5-chloro-1-(2-methylpyridin-3-yl)-7-(trifluoromethyl)quinazolin-2(1H)-one] | 20 nM
Cc1ncsc1-n1c(=O)nc(N)c2ccc(N3C4CCC3CC4)nc21 [Example 90, 4-amino-7-(7-azabicyclo[2.2.1]heptan-7-yl)-1-(4-methylthiazol-5-yl)pyrido[2,3-d]pyrimidin-2-one] | 13 nM
COc1ccccc1-c1c(=O)nc(N)n2ccc(C(F)(F)F)cc12 [Example 92, 1-amino-4-(2-methoxyphenyl)-6-(trifluoromethyl)-3H-pyrido[1,2-c]pyrimidin-3-one] | 37 nM
Cc1ncccc1-n1c(=O)nc(N)c2ccc(C3CCOC3)nc21 (centres unmarked) [Example 93, 4-amino-1-(2-methylpyridin-3-yl)-7-(tetrahydrofuran-3-yl)pyrido[2,3-d]pyrimidin-2 (1H)-one] | 27 nM
Cc1ccccc1-n1c(=O)nc(N)c2c(C(N)=O)cc(C3CC3)nc21 [Example 94, 4-amino-7-cyclopropyl-2-oxo-1-(o-tolyl)-1,2-dihydropyrido[2,3-d]pyrimidine-5-carboxamide] | 74 nM
Cc1ccccc1-n1c(=O)nc(N)c2c(C#N)cc(C3CC3)nc21 [Example 95, 4-amino-7-cyclopropyl-2-oxo-1-(o-tolyl)-1,2-dihydropyrido[2,3-d]pyrimidine-5-carbonitrile] | 22 nM
Nc1nc(=O)n(C2CCNC(=O)C2)c2nc(C3CC3)ccc12 (centres unmarked) [Example 97, 4-amino-7-cyclopropyl-1-(2-oxopiperidin-4-yl)pyrido[2,3-d]pyrimidin-2 (1H)-one] | 48 nM
Cc1ncccc1-n1c(=O)nc(O)c2ccc(C3CC3)cc21 [Example 98, 7-cyclopropyl-1-(2-methylpyridin-3-yl)quinazoline-2,4-dione] | 200 nM
Cc1ccccc1-n1c(=O)nc(O)c2ccc(C3CC3)nc21 [Example 99, 7-cyclopropyl-1-(2-methylphenyl)pyrido[2,3-d]pyrimidine-2,4-dione] | 65 nM
Cc1ccccc1-n1c(=O)[nH]c(=O)c2ccc(C3CC3)cc21 [Example 100, 7-cyclopropyl-1-(2-methylphenyl)quinazoline-2,4-dione] | 350 nM
Cc1ncccc1-n1c(=O)nc(O)c2ccc(C3CC3)nc21 [Example 101, 7-cyclopropyl-1-(2-methylpyridin-3-yl)pyrido[2,3-d]pyrimidine-2,4-dione] | 40 nM
COc1cc(C(F)(F)F)cc2c1c(N)nc(=O)n2-c1cccnc1C [Example 102, 4-amino-5-methoxy-1-(2-methylpyridin-3-yl)-7-(trifluoromethyl)quinazolin-2 (1H)-one] | 14 nM
COc1c(C#N)cccc1-n1c(=O)nc(N)c2cc(Cl)c(C(C)C)nc21 [Example 105, 3-(4-amino-6-chloro-7-isopropyl-2-oxopyrido[2,3-d]pyrimidin-1 (2H)-yl)-2-methoxybenzonitrile] | 42 nM
Nc1nc(=O)n(C2COCCOC2)c2nc(C3CC3)ccc12 [Example 107, 4-amino-7-cyclopropyl-1-(1,4-dioxepan-6-yl)pyrido[2,3-d]pyrimidin-2-one] | 25 nM
Nc1nc(=O)n(-c2cccnc2Cl)c2cc(OC(F)(F)F)ccc12 [Example 109, 4-amino-1-(2-chloro-3-pyridyl)-7-(trifluoromethoxy)quinazolin-2-one] | 16 nM
Nc1nc(=O)n(C2CCn3cncc32)c2nc(C3CC3)ccc12 (centres unmarked) [Example 112, 4-amino-7-cyclopropyl-1-(6,7-dihydro-5H-pyrrolo[1,2-c]imidazol-7-yl)pyrido[2,3-d]pyrimidin-2-one] | 39 nM
Cc1ccccc1-n1c(=O)nc(N)c2cc(OC(F)F)c(C3CC3)nc21 [Example 113, 4-amino-7-cyclopropyl-6-(difluoromethoxy)-1-(o-tolyl)pyrido[2,3-d]pyrimidin-2-one] | 14 nM
C[C@H]1OCCC[C@@H]1n1c(=O)nc(N)c2ccc(C3CC3)nc21 [Example 118, 4-amino-7-cyclopropyl-1-((2R,3S)-2-methyltetrahydro-2H-pyran-3-yl)pyrido[2,3-d]pyrimidin-2 (1H)-one] | 13 nM
Cc1c(O)cccc1-n1c(=O)nc(N)c2ccc(C3CC3)nc21 [Example 123, 4-amino-7-cyclopropyl-1-(3-hydroxy-2-methylphenyl)pyrido[2,3-d]pyrimidin-2 (1H)-one] | 13 nM
Nc1nc(=O)n([C@H]2CCCCOC2)c2nc(C3CC3)ccc12 [Example 125, (S)-4-amino-7-cyclopropyl-1-(oxepan-3-yl)pyrido[2,3-d]pyrimidin-2 (1H)-one] | 40 nM
Cc1cccc(-n2c(=O)nc(N)c3ccc(C4CC4)nc32)c1F [Example 127, 4-amino-7-cyclopropyl-1-(2-fluoro-3-methylphenyl)pyrido[2,3-d]pyrimidin-2 (1H)-one] | 13 nM
Cc1cccc(-n2c(=O)nc(N)c3ccc(C4CC4)nc32)c1Cl [Example 130, 4-amino-1-(2-chloro-3-methylphenyl)-7-cyclopropylpyrido[2,3-d]pyrimidin-2-one] | < 13 nM
Cc1c(CF)cccc1-n1c(=O)nc(N)c2ccc(C3CC3)nc21 [Example 131, 4-amino-7-cyclopropyl-1-(3-(fluoromethyl)-2-methylphenyl)pyrido[2,3-d]pyrimidin-2 (1H)-one] | < 13 nM
Nc1nc(=O)n(-c2ccccc2C(F)(F)F)c2nc(C3CC3)ccc12 [Example 132, 4-amino-7-cyclopropyl-1-(2-(trifluoromethyl)phenyl)pyrido[2,3-d]pyrimidin-2 (1H)-one] | < 13 nM
Cc1cccc(-n2c(=O)nc(N)c3ccc(OC(F)F)cc32)c1F [Example 133, 4-amino-7-(difluoromethoxy)-1-(2-fluoro-3-methylphenyl)quinazolin-2 (1H)-one] | 26 nM
Cc1cccc(-n2c(=O)nc(N)c3ccc(OC(F)F)cc32)c1 [Example 134, 4-amino-7-(difluoromethoxy)-1-(m-tolyl)quinazolin-2 (1H)-one] | 20 nM
Nc1nc(=O)n(-c2cccnc2Cl)c2cc(OC(F)F)ccc12 [Example 137, 4-amino-1-(2-chloropyridin-3-yl)-7-(difluoromethoxy)quinazolin-2 (1H)-one] | < 13 nM
Cc1cccc(-n2c(=O)nc(N)c3ccc(C4CC4)nc32)c1C [Example 138, 4-amino-7-cyclopropyl-1-(2,3-dimethylphenyl)pyrido[2,3-d]pyrimidin-2 (1H)-one] | < 13 nM
Nc1nc(=O)n(-c2cccc3[nH]ncc23)c2nc(C3CC3)ccc12 [Example 139, 4-amino-7-cyclopropyl-1-(1H-indazol-4-yl)pyrido[2,3-d]pyrimidin-2 (1H)-one] | < 13 nM
Nc1nc(=O)n([C@@H]2CCCOC23CC3)c2nc(C3CC3)ccc12 [Example 141, 4-amino-7-cyclopropyl-1-[(8R)-4-oxaspiro[2.5]octan-8-yl]pyrido[2,3-d]pyrimidin-2-one] | < 13 nM

More lines, now with the values ahead:

IC50 | Structure (SMILES)
< 13 nM | Nc1nc(=O)n(C2CCCOC23CC3)c2nc(C3CC3)ccc12 (centres unmarked) [Example 88, 4-amino-7-cyclopropyl-1-(4-oxaspiro[2.5]octan-8-yl)pyrido[2,3-d]pyrimidin-2(1H)-one]
< 13 nM | Cc1ccccc1-n1c(=O)nc(N)c2ccc(OC(F)F)nc21 [Example 91, 4-amino-7-(difluoromethoxy)-1-(2-methylphenyl)pyrido[2,3-d]pyrimidin-2-one]
< 13 nM | Cc1ccccc1-n1c(=O)nc(N)c2cnc(C3CC3)nc21 [Example 96, 4-amino-7-cyclopropyl-1-(o-tolyl)pyrimido[4,5-d]pyrimidin-2 (1H)-one]
< 13 nM | Cc1c(F)cccc1-n1c(=O)nc(N)c2ccc(C3CC3)cc21 [Example 106, 4-amino-7-cyclopropyl-1-(3-fluoro-2-methylphenyl)quinazolin-2-one]
< 13 nM | Nc1nc(=O)n(-c2cccc(OC(F)F)n2)c2nc(C3CC3)ccc12 [Example 108, 4-amino-7-cyclopropyl-1-(6-(difluoromethoxy)pyridin-2-yl)pyrido[2,3-d]pyrimidin-2 (1H)-one]
< 13 nM | Nc1nc(=O)n(-c2ccccc2OC(F)(F)F)c2nc(C3CC3)ccc12 [Example 110, 4-amino-7-cyclopropyl-1-[2-(trifluoromethoxy)phenyl]pyrido[2,3-d]pyrimidin-2-one]
< 13 nM | Nc1nc(=O)c(-c2ccccc2Cl)c2cc(C3CC3)ccn12 [Example 111, 4-(2-chlorophenyl)-6-cyclopropyl-1-imino-pyrido[1,2-c]pyrimidin-3-one]
< 13 nM | C[C@@H]1OCCC[C@H]1n1c(=O)nc(N)c2ccc(C3CC3)nc21 [Example 119, 4-amino-7-cyclopropyl-1-((2S,3R)-2-methyltetrahydro-2H-pyran-3-yl)pyrido[2,3-d]pyrimidin-2 (1H)-one]
< 13 nM | Nc1nc(=O)n(-c2cccc3ncsc23)c2nc(C3CC3)ccc12 [Example 120]
< 13 nM | Cc1c(F)cccc1-n1c(=O)nc(N)c2ccc(OC(F)F)cc21 [Example 122, 4-amino-7-(difluoromethoxy)-1-(3-fluoro-2-methylphenyl)quinazolin-2 (1H)-one]
< 13 nM | Nc1nc(=O)n([C@@H]2CCCCOC2)c2nc(C3CC3)ccc12 [Example 124, (R)-4-amino-7-cyclopropyl-1-(oxepan-3-yl)pyrido[2,3-d]pyrimidin-2 (1H)-one]
< 13 nM | N#Cc1cccc(-n2c(=O)nc(N)c3ccc(C4CC4)nc32)c1F [Example 126, 3-(4-amino-7-cyclopropyl-2-oxopyrido[2,3-d]pyrimidin-1 (2H)-yl)-2-fluorobenzonitrile]
< 13 nM | Nc1nc(=O)n(-c2cccc(Cl)c2Cl)c2nc(C3CC3)ccc12 [Example 128, 4-amino-7-cyclopropyl-1-(2,3-dichlorophenyl)pyrido[2,3-d]pyrimidin-2 (1H)-one]
< 13 nM | Cc1c(Cl)cccc1-n1c(=O)nc(N)c2ccc(C3CC3)nc21 [Example 129, 4-amino-1-(3-chloro-2-methylphenyl)-7-cyclopropylpyrido[2,3-d]pyrimidin-2-one]

From patent US20230227449A1, “AMIDOPYRIMIDONE DERIVATIVES” (Hoffmann-La Roche Inc., priority 2020, published 2023)
